One test concerns the target T1, Human rt-PA (Activase) (Homo sapiens, UniProt P00750).
T1 construct: purchased Genentech Inc
Kind of test: Recombinant tissue plasminogen activator (rt-PA) chromogenic assay. It counts as biochemical. The conditions noted are these: 30 minute preincubation, HBSA buffer; read-out: tPA IC50. How it is done: rt-PA catalytic activity was determined using the substrate, Pefachrome t-PA (CH3SO2-D-hexahydrotyrosine-glycyl-L-arginine-p-nitroaniline, obtained from Pentap harm Ltd.). The substrate was made up in deionized water followed by dilution in HBSA prior to the assay in which the final concentration was 500 micromolar (about 3-times Km). Human rt-PA (Activase®) was obtained from Genentech Inc. The enzyme was reconstituted in deionized water and diluted into HBSA prior to the assay in which the final concentration was 1.0 nM.

In the next test the target is T2, human plasmin (Homo sapiens, UniProt P00747).
T2 construct: purchased Enzyme Research Laboratories, Inc
T2 sequence (P00747 581-810 limits assumed): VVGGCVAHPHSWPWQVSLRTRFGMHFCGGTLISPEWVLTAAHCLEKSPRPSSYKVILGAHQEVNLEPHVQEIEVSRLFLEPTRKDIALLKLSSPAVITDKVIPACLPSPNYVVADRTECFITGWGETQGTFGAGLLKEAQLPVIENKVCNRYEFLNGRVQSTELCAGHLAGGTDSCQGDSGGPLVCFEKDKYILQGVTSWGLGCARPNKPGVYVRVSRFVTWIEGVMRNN
T2 sequence (P00747 97-580 partner limits assumed): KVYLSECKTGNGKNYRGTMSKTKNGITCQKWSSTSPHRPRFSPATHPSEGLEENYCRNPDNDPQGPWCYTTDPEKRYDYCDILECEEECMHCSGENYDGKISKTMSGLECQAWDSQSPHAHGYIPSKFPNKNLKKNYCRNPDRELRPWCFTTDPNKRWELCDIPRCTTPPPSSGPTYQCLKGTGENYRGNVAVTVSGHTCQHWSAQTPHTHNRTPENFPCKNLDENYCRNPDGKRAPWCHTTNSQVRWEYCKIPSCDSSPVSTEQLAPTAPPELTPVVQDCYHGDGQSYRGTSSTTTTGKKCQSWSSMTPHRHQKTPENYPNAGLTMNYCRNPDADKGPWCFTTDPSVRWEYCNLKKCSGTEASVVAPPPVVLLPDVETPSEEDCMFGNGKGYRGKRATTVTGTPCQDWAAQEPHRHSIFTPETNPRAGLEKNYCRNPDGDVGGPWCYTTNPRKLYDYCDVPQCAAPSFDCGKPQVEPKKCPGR
Kind of test: Plasmin chromogenic substrate (S-2366) assay. Format: biochemical. The conditions noted are these: 30 minute preincubation, HBSA buffer. As to the method:
The substrate was made up in deionized water followed by dilution in HBSA prior to the assay in which the final concentration was 300 micromolar (about 2.5-times Km). Purified human plasmin was obtained from Enzyme Research Laboratories, Inc. The enzyme was diluted into HBSA prior to assay in which the final concentration was 1.0 nM.

Test [1] concerns bFGF-induced angiogenesis on the CAM of chick embryos. Kind of test: Chicken CAM model of bFGF-induced angiogenesis. The conditions noted are these: for Angiogenic Index / # of Blood Vessel Branch Points: bFGF; for Angiogenic Index: difference in branch points vs untreated control embryos; for # of Blood Vessel Branch Points: single administration. Format: in vivo. The text has this: A test compound can either be added to the filter disc that contains the angiogenesis inducer, be placed directly on the membrane or be administered systemically. The extent of new blood vessel formation in the presence and/or absence of test compound can be compared using this model. The formation of fewer new blood vessels in the presence of a test compound would be indicative of anti-angiogenesis activity.
The chicken CAM (chick embryo chorioallantoic membrane) model, a standard angiogenesis assay, was used to evaluate the ability of Compound 1 to inhibit angiogenesis. This model is an established model for evaluation of activity of a test compound to affect formulation of new blood vessels.
A filter disc saturated with a 0.5 μg/ml solution of basic fibroblast growth factor (bFGF) was placed on the CAM of 10 day old chick embryos to induce angiogenesis. Twenty four hours later, 0 to 1 μg of Compound 1, in a total volume of 100 μl of sterile PBS, was injected intravenously into the embryo. Approximately 48 hours later, the embryos were sacrificed and the filter discs and surrounding CAM tissue were excised for analysis. Angiogenesis was quantitated by counting the number of blood vessel branch points within the confined region of the filter [Brooks, P.C., et al, Methods in Molecular Biology 120:257-269 (1999)]. The angiogenic index is defined as the difference in the number of blood vessel branch points between an experimental group and the untreated, control embryos. Each experimental group contained 8 to 10 chicken embryos. A single administration of 1 μg of Compound 1 inhibited angiogenesis by 92% in this experiment.

The test system of test [2] is human fibrosarcoma cells (HT 1080). Description: Growth of human HT1080 tumor cells in chick embryo model. It counts as in vivo, chicken. The conditions noted are these: for Tumor wet weight: 7 days incubation. As to the method: A chicken embryo model was used to evaluate the activity of Compound 1 to inhibit the growth of human tumor cells in vivo. A single cell suspension of human fibrosarcoma cells (HT 1080), containing 4×10^5 cells in a total volume of 40 μl, was applied to 10 day old chick embryos as described by Brooks, et al (“Brooks, P.C., et al, “Integrin αvβ3 Antagonists Promote Tumor Regression by Inducing Apoptosis of Angiogenic Blood Vessels”, Cell 79:1157-1164 (1994)). Twenty-four hours later 0 to 10 μg of Compound 1 was injected intravenously into the embryos. Following this single administration of compound, control and treated embryos were incubated for a total of 7 days and then sacrificed. Tumors were excised, trimmed free of surrounding CAM tissue, and weighed. Each experimental group contained 10 to 12 chicken embryos. A single dose of 10 μg of Compound 1 reduced tumor weight by approximately 65%.

In another test the target is Urokinase (Abbokinase) (Homo sapiens, UniProt P00749). Kind of test: Urokinase chromogenic substrate (S-2444) IC50 assay.
[3] abbreviates: read-out: uPA IC50, 30 minute preincubation, HBSA buffer.

Where two headings read alike, the source gives them in different places. Starred links: 1 amine or outer side, 2 acyl side, 3 side chain; linkers in the order of their positions; H or OH if unused. Non-standard residues stand in square brackets, D forms with d. Residues, ends and D or L forms follow the SMILES beside them. *: point of attachment. d(aThr) = C[C@@H](O)[C@@H](N)C(=O)O; cisHyp = O=C(O)[C@@H]1C[C@H](O)CN1; Hydrocinnamoyl = O=C(CCc1ccccc1)*; d(hSer) = N[C@H](CCO)C(=O)O; Isovaleryl = CC(C)CC(=O)*; dDap = NC[C@@H](N)C(=O)O; Cbz = O=C(OCc1ccccc1)*; CO = O=C([*:1])[*:2]; NHBn = c1ccc(CN*)cc1 Some results are limits rather than exact numbers.

T1 sequence (P00750 36-562): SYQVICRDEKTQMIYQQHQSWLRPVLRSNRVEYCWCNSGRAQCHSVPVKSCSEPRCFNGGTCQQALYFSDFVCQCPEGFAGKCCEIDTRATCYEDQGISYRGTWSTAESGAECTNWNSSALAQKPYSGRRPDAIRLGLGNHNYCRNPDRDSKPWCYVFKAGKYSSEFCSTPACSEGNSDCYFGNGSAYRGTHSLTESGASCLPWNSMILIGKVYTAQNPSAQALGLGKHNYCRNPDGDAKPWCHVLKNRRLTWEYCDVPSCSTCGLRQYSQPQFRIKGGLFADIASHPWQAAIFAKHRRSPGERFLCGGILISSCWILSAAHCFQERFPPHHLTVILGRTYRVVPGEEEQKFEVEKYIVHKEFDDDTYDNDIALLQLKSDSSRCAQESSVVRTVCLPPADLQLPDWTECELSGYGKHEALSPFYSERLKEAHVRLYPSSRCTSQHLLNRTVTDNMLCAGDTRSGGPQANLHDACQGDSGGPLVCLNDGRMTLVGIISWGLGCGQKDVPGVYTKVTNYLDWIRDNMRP
Procedure for Urokinase (Abbokinase): The buffer used for all assays was HBSA (10 mM HEPES, pH 7.5, 150 mM sodium chloride, 0.1% bovine serum albumin).
The initial velocity of chromogenic substrate hydrolysis was measured by the change in absorbance at 405 nm using a Thermo Max® Kinetic Microplate Reader over a 5 minute period in which less than 5% of the added substrate was utilized.
The assay buffer was HBS (10mM HEPES, 150mM sodium chloride pH 7.4) with 0.1% BSA.

Turning to `CC(C)COC(=O)N[C@H](CO)C(=O)N[C@@H](C)C(=O)N[C@H](C=O)CCCNC(=N)N` [Compound 1, Isobutyloxycarbonyl-D-seryl-L-alanyl-argininal], the IC50 on Human rt-PA (Activase) was above 2500 nM; against human plasmin, 250 to 2500 nM; against Urokinase (Abbokinase) it was below 100 nM. For the same molecule, the entries for the “Angiogenic Index” value in test [1] (0.001 μg Compound 1), in test [1] (0.01 μg Compound 1) and in test [1] (1.0 μg Compound 1) were 22, 8 and 2, respectively. Moreover, the “# of Blood Vessel Branch Points” value is 35 +/− 5 in test [1] (0.001 μg Compound 1 intravenously), 21 +/− 5 in test [1] (0.01 μg Compound 1 intravenously) and 15 +/− 1 in test [1] (1.0 μg Compound 1 intravenously). Moreover, the inhibition of angiogenesis in test [1] (single administration of 1 μg, intravenously) is 92%. Besides, the Tumor wet weight in test [2] (1 μg single intravenous dose) is 174 ± 25 mg; in test [2] (10 μg single intravenous dose), 97 ± 15 mg. In test [2] (single dose of 10 μg), the “reduction of tumor weight” value was “approximately 65%”.
`CC(C)COC(=O)N[C@H](CO)C(=O)N[C@@H](C)C(=O)NC(CCCN=C(N)N)C(=O)C(=O)NCCc1ccccc1` (stereo partly drawn) [Compound 30, i-butoxycarbonyl-D-Ser-Ala-Arg-CO-phenethylamide]: the figures for the half-inhibitory concentration (IC50) on Human rt-PA (Activase), at human plasmin and at Urokinase (Abbokinase) (setting [3]) were above 2500 nM, 250 to 2500 nM and 100 to 250 nM, respectively.
As for `N=C(N)NCCC[C@@H](C=O)NC(=O)[C@@H]1C[C@H](O)CN1C(=O)[C@@H](CO)NC(=O)OCc1ccccc1` [Compound 49, benzyloxycarbonyl-D-seryl-L-cis-4-hydroxyprolyl-argininal] (Cbz-[dS]-[cisHyp]-Arg-aldehyde), the IC50 on Human rt-PA (Activase) is above 2500 nM; on human plasmin it was 250 to 2500 nM; against Urokinase (Abbokinase), below 100 nM.
The like results for `N=C(N)NCCC[C@@H](C=O)NC(=O)[C@H](CO)NC(=O)[C@@H](CO)NC(=O)OCc1ccccc1` [Compound 45, benzyloxycarbonyl-D-seryl-L-seryl-argininal] (Cbz-[dS]-Ser-Arg-aldehyde) were, in that order, above 2500 nM, 250 to 2500 nM and 100 to 250 nM.
For `CC(C)CC(=O)N[C@H](CO)C(=O)N[C@@H](C)C(=O)N[C@H](C=O)CCCNC(=N)N` [Compound 39, isovaleryl-D-seryl-alanyl-argininal] (Isovaleryl-[dS]-Ala-Arg-aldehyde), the IC50 at Human rt-PA (Activase) is above 2500 nM; against human plasmin, above 2500 nM; at Urokinase (Abbokinase), 250 to 2500 nM.
For the molecule `C[C@H](NC(=O)[C@@H](CO)NS(=O)(=O)CCc1ccccc1)C(=O)N[C@H](C=O)CCCNC(=N)N` [Compound 47, 2-phenylethylsulfonyl-D-seryl-alanyl-argininal], the IC50 at Human rt-PA (Activase) was above 2500 nM; at human plasmin it was 250 to 2500 nM; at Urokinase (Abbokinase), below 100 nM.
The like results for `N=C(N)NCCC[C@@H](C=O)NC(=O)[C@@H]1CCCN1C(=O)[C@@H](CCO)NC(=O)OCc1ccccc1` [Compound 27, benzyloxycarbonyl-D-homoseryl-prolyl-argininal] (Cbz-[d(hSer)]-Pro-Arg-aldehyde) were, in that order, above 2500 nM, below 100 nM and 100 to 250 nM.
For `C[C@H](NC(=O)[C@@H](CNC(=O)CCc1ccccc1)NC(=O)OCc1ccccc1)C(=O)N[C@H](C=O)CCCNC(=N)N` [Compound 41, N-α-benzyloxycarbonyl-N-β-2-phenylethylcarbonyl-D-2,3-diaminopropionyl-alanyl-argininal] (Cbz-[dDap](Hydrocinnamoyl)-Ala-Arg-aldehyde) the same measures were above 2500 nM, 250 to 2500 nM and 250 to 2500 nM.
As to `C[C@H](NC(=O)[C@@H](CO)NS(=O)(=O)Cc1ccccc1)C(=O)N[C@H](C=O)CCCN=C(N)N` [Compound 29, Benzylsulfonyl-D-Ser-Ala-Arg-al], the half-maximal inhibitory concentration (IC50) at Human rt-PA (Activase) is above 2500 nM; against human plasmin, 250 to 2500 nM; at Urokinase (Abbokinase) (setting [3]), below 100 nM.
`C[C@H](NC(=O)[C@@H](CO)NS(=O)(=O)CCCc1ccccc1)C(=O)N[C@H](C=O)CCCNC(=N)N` [Compound 48, 3-phenylpropylsulfonyl-D-seryl-alanyl-argininal]: the IC50 at Human rt-PA (Activase) is above 2500 nM; on human plasmin it was 250 to 2500 nM; on Urokinase (Abbokinase), below 100 nM.
Regarding `C[C@H](NC(=O)[C@@H](CO)NCCCc1ccccc1)C(=O)N[C@H](C=O)CCCNC(=N)N` [Compound 32, N-α-(3-Phenylpropyl)-D-seryl-alanyl-argininal], the IC50 on Human rt-PA (Activase) was above 2500 nM; against human plasmin, 250 to 2500 nM; at Urokinase (Abbokinase) (setting [3]), below 100 nM.
On to `C[C@H](NC(=O)[C@@H](CO)NC(=O)NCc1ccccc1)C(=O)N[C@H](C=O)CCCNC(=N)N` [Compound 38, benzylazacarbonyl-D-seryl-alanyl-argininal] ({NHBn-CO}-[dS]-Ala-Arg-aldehyde), for which the IC50 on Human rt-PA (Activase) is above 2500 nM; on human plasmin, above 2500 nM; against Urokinase (Abbokinase), 100 to 250 nM.
In the case of `C[C@H](NC(=O)[C@H](NC(=O)OCc1ccccc1)[C@@H](C)O)C(=O)N[C@H](C=O)CCCNC(=N)N` [Compound 19, benzyloxycarbonyl-D-allothreonyl-alanyl-argininal] (Cbz-[d(aThr)]-Ala-Arg-aldehyde), the IC50 on Human rt-PA (Activase) was above 2500 nM; at human plasmin, 250 to 2500 nM; on Urokinase (Abbokinase) it was below 100 nM.
For `C[C@H](NC(=O)[C@@H](CO)NS(=O)(=O)c1ccccc1)C(=O)N[C@H](C=O)CCCN=C(N)N` [Compound 28, Benzenesufonyl-D-Ser-L-Ala-L-Arg-al], the IC50 at Human rt-PA (Activase) is above 2500 nM; on human plasmin it was 250 to 2500 nM; on Urokinase (Abbokinase) (setting [3]), below 100 nM.
Turning to `N=C(N)NCCC[C@@H](C=O)NC(=O)[C@@H]1CCCN1C(=O)[C@@H](CO)NC(=O)OCc1ccccc1` [Compound 11, benzyloxycarbonyl-D-seryl-prolyl-argininal] (Cbz-[dS]-Pro-Arg-aldehyde), the IC50 at Human rt-PA (Activase) was above 2500 nM; against human plasmin it was 250 to 2500 nM; at Urokinase (Abbokinase) it was below 100 nM.
The like results for `C[C@H](NC(=O)[C@@H](CO)NC(=O)OCc1ccccc1)C(=O)N[C@H](C=O)CCCNC(=N)N` [Compound 2, Benzyloxycarbonyl-D-seryl-alanyl-argininal] (Cbz-[dS]-Ala-Arg-aldehyde) were, in that order, 250 to 2500 nM, 250 to 2500 nM and below 100 nM.
As to “benzyloxycarbonyl-D-seryl-L-β-cyanoalanine-argininal [Compound 46]”, the values for the IC50 on Human rt-PA (Activase), at human plasmin and at Urokinase (Abbokinase) (setting [3]) were above 2500 nM, 250 to 2500 nM and below 100 nM, respectively.
Turning to `C[C@H](NC(=O)[C@@H](CO)NC(=O)CCC1CCCCC1)C(=O)N[C@H](C=O)CCCNC(=N)N` [Compound 35, 3-cyclohexylpropionyl-D-seryl-alanyl-argininal], the IC50 at Human rt-PA (Activase) was above 2500 nM; against human plasmin, above 2500 nM; at Urokinase (Abbokinase), 250 to 2500 nM.
In the case of `C[C@H](NC(=O)[C@@H](CO)NC(=O)OCC1CCCCC1)C(=O)N[C@H](C=O)CCCNC(=N)N` [Compound 36, cyclohexylmethyloxycarbonyl-D-seryl-alanyl-argininal], the IC50 at Human rt-PA (Activase) is above 2500 nM; at human plasmin, 250 to 2500 nM; on Urokinase (Abbokinase) it was below 100 nM.
The like results for `CC(C)OC(=O)N[C@H](CO)C(=O)N[C@@H](C)C(=O)N[C@H](C=O)CCCNC(=N)N` [Compound 40, isopropyloxycarbonyl-D-seryl-alanyl-argininal] were, in that order, above 2500 nM, above 2500 nM and below 100 nM.

For orientation: IC50 means the concentration that inhibits the measured activity by half.
